Experimental data published in PubChem BioAssay (NCI).
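Growth conditions: 96-well plates. Treatment: test compound, 48 hours, 5 concentrations. Analysis: linear interpolation between bracketing concentrations; unreached endpoints set to highest concentration. The concentration for full growth arrest is given as TGI.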

Experiments:
Assay in all cases: NCI-60 cell line screen, 48 h
SR leukemia = tested on: SR leukemia
UACC-62 melanoma = tested on: UACC-62 melanoma
CCRF-CEM leukemia = tested on: CCRF-CEM leukemia
UO-31 renal = tested on: UO-31 renal
SNB-75 CNS = tested on: SNB-75 CNS
SF-295 CNS = tested on: SF-295 CNS
HCT-116 colon = tested on: HCT-116 colon
NCI-H522 lung = tested on: NCI-H522 lung
CAKI-1 renal = tested on: CAKI-1 renal
SK-MEL-2 melanoma = tested on: SK-MEL-2 melanoma
PC-3 prostate = tested on: PC-3 prostate
HT29 colon = tested on: HT29 colon
KM12 colon = tested on: KM12 colon
U251 CNS = tested on: U251 CNS
COLO 205 colon = tested on: COLO 205 colon
MDA-MB-231 breast = tested on: MDA-MB-231 breast
MDA-MB-435 = tested on: MDA-MB-435
NCI-H226 lung = tested on: NCI-H226 lung
SK-OV-3 ovarian = tested on: SK-OV-3 ovarian
A549 NSCLC = tested on: A549 NSCLC
786-0 renal = tested on: 786-0 renal
IGROV1 ovarian = tested on: IGROV1 ovarian
OVCAR-4 ovarian = tested on: OVCAR-4 ovarian
HOP-62 NSCLC = tested on: HOP-62 NSCLC
MCF7 breast = tested on: MCF7 breast
HS 578T breast = tested on: HS 578T breast
ACHN renal = tested on: ACHN renal
HCT-15 colon = tested on: HCT-15 colon
M14 melanoma = tested on: M14 melanoma
EKVX NSCLC = tested on: EKVX NSCLC
HCC-2998 colon = tested on: HCC-2998 colon
MDA-N = tested on: MDA-N
LOX IMVI melanoma = tested on: LOX IMVI melanoma
DU-145 prostate = tested on: DU-145 prostate
HL-60(TB) leukemia = tested on: HL-60(TB) leukemia
SW-620 colon = tested on: SW-620 colon
SK-MEL-5 melanoma = tested on: SK-MEL-5 melanoma
OVCAR-8 ovarian = tested on: OVCAR-8 ovarian
NCI-H460 lung = tested on: NCI-H460 lung
BT-549 breast = tested on: BT-549 breast
SF-268 CNS = tested on: SF-268 CNS
T-47D breast = tested on: T-47D breast
OVCAR-3 ovarian = tested on: OVCAR-3 ovarian
SN12C renal = tested on: SN12C renal
SK-MEL-28 melanoma = tested on: SK-MEL-28 melanoma
MALME-3M melanoma = tested on: MALME-3M melanoma
UACC-257 melanoma = tested on: UACC-257 melanoma
A498 renal = tested on: A498 renal
K-562 leukemia = tested on: K-562 leukemia
RPMI-8226 leukemia = tested on: RPMI-8226 leukemia
SF-539 CNS = tested on: SF-539 CNS
SNB-19 CNS = tested on: SNB-19 CNS
NCI/ADR-RES ovarian = tested on: NCI/ADR-RES ovarian
HOP-92 NSCLC = tested on: HOP-92 NSCLC
OVCAR-5 ovarian = tested on: OVCAR-5 ovarian
RXF 393 renal = tested on: RXF 393 renal
NCI-H23 lung = tested on: NCI-H23 lung
MOLT-4 leukemia = tested on: MOLT-4 leukemia
TK-10 renal = tested on: TK-10 renal

Measured: TGI

CCNC(=S)NNC(=O)CSc1nc2ccc(I)cc2c(=O)n1Cc1ccccc1
> 70.4 µM: OVCAR-8 ovarian
97.7 µM: HOP-92 NSCLC
> 87.1 µM: UACC-257 melanoma
> 88 µM: EKVX NSCLC
> 77.1 µM: HCT-116 colon
> 95.5 µM: NCI-H226 lung | OVCAR-4 ovarian
> 94.9 µM: SK-MEL-2 melanoma
> 34.7 µM: HL-60(TB) leukemia
> 85.7 µM: HCC-2998 colon
> 24.4 µM: ACHN renal
> 78.2 µM: A498 renal
> 67.8 µM: MALME-3M melanoma
> 81 µM: RXF 393 renal
1.65 µM: CAKI-1 renal
0.136 µM: UO-31 renal
> 100 µM: all other assays above

C/C(=N\NC(N)=S)c1sc(-n2nc(-c3ccccc3)cc2-c2ccccc2)nc1C
61.2 µM: RPMI-8226 leukemia
not listed: K-562 leukemia
> 100 µM: all other assays above

CC(=O)c1c(O)n(-c2ccc(C)cc2)c(=O)c2c(N)n[nH]c12
not listed: SF-295 CNS | HOP-62 NSCLC | ACHN renal | HOP-92 NSCLC
> 100 µM: all other assays above
